According to patent US20260218197A1, “EXTRACELLULAR VESICLE SECRETION REDUCING AGENT FOR REDUCING EXTRACELLULAR VESICLE SECRETION, AND USE OF THE SAME” (THEORIA SCIENCE INC., priority 2020, published 2026):

Tested on: MDA-MB-231_Luc_D3H2LN cell line
Assay: Mice implanted with breast cancer metastatic cell line
Type: in vivo
Conditions: 40 mg/kg intraperitoneal injection every day from Day 7, vs non-administration group (PBS)
Experimental: As a breast cancer metastatic cell line, an MDA-MB-231_Luc_D3H2LN cell line (hereafter referred to as D3H2LN) was used. […] Specifically, the amounts of secreted EVs in the parent cell line and the D3H2LN were measured by the NTA analysis in the same manner as in Example A1, and also, expression of PSAT1 in the parent cell line and the D3H2LN were measured by Western blotting.
Immunodeficient mice C. B-17 scid mice (female, 6-week old) were used as mice. The D3H2LN was suspended in PBS to prepare a cell suspension of 1×10^6 cells/100 μL. Then, on the 0th day (Day 0), 100 μL of the cell suspension was subcutaneously implanted in the mammary gland of each mouse by injection. Then, on the 7th day (Day7), the D3H2LN cells had engrafted, and to mice of an inhibitor administration group (n=6), an NCT-503 solution (solvent: PBS) was administered by intraperitoneal injection every day at 40 mg/kg of body weight. To mice of a non-administration group (n=6, Vehicle), the same amount of PBS was administered every day instead of the NCT-503. For each of the mice in both the administration group and the non-administration group, the tumor volume in the primary lesion (mammary gland) was measured every week using an IVIS-Spectrum (Summit Pharmaceuticals International Corporation). Specifically, the tumor volume was calculated as per the mathematical expression using the longest diameter and the shortest diameter (shortest diameter×shortest diameter×longest diameter×0.5). Also, the body weight of each mouse was measured every day to determine the toxicity. On the 35th day (Day 35), the mice were sacrificed and the mammary gland as the primary lesion and the lungs as the metastatic lesion were excised from each mouse, after which the weight of the primary lesion was measured.

Cc1cc(C)nc(NC(=S)N2CCN(Cc3ccc(C(F)(F)F)cc3)CC2)c1 [NCT-503]
tumor volume of the primary lesion (mammary gland) (Day 21 and Day 35): significantly reduced | metastatic lesions in the lungs (HE-stained) (Day 35): fewer metastatic lesions | tumor weight of the primary lesion (mammary gland) (Day 35): significantly reduced
